Tested on: CD1 female mouse brain lipidome
Test: Brain-region lipid levels (HPLC/MS/MS lipidomics) 2 h after single i.p. 3 mg/kg CP 55,940 vs vehicle
Assay type: in vivo
Parameters: N-arachidonoyl phenylalanine level, Mean / N-stearoyl tryptophan level, Mean / N-stearoyl proline level, Mean / N-stearoyl leucine level, Mean / N-stearoyl phenylalanine level, Mean / N-stearoyl serine level, Mean / N-stearoyl methionine level, Mean: unit: moles per gram
Experimental: The Bloomington Institutional Animal Care and Use Committee of Indiana University reviewed and approved the animal procedures. Female mice from the CD1 strain were utilized to match our study examining THC’s effects on the brain lipidome ([Leishman et al., 2018]). Mice were given a single i.p. injection of either 3 mg/kg CP or 1:1:18 cremophor:ethanol:saline vehicle (please refer to the section “3 mg/kg CP Is Relevant for Synthetic Cannabinoid Abuse and Has Stronger Effects on the Female Mouse Brain Lipidome During Adolescence” for a justification of dose and use of female mice). Three different age groups were given injections: PND 35 and PND 50 adolescents, and adult mice (PND 113). At least eight mice in each age group received CP and at least eight received vehicle. Matching the THC study time course ([Leishman et al., 2018]), mice were sacrificed via rapid decapitation 2 h after injection. Brains were immediately removed and flash-frozen in liquid nitrogen, and then stored at -80°C until dissections were performed. Brains were dissected on an ice-cold dissection plate into the following regions: STR, HIPP, CER, THAL, CTX, HYP, MID, and STEM. These abbreviations for these brain areas will be used exclusively when discussing the results generated by these specific dissections. Each dissected area was immediately placed in liquid nitrogen and then stored at -80°C until used for lipid extraction.
Tissue extracts were performed as previously described ([Bradshaw et al., 2006]; [Stuart et al., 2013]; [Raboune et al., 2014]; [Leishman et al., 2016a],[b], [2017], [2018]). First, samples were shock frozen in liquid nitrogen, weighed, and transferred to a centrifuge tube. The mass of the largest sample was multiplied by 50 to determine how many milliliters of HPLC-grade methanol (Fisher, Fair Lawn, NJ, United States) to add. Then, samples were spiked with 500 pmol deuterium-labeled NAGly (d8NAGly; Cayman Chemical, Ann Arbor, MI, United States). Samples were placed on ice in darkness for 2 h then individually homogenized and centrifuged at 19,000 × g for 20 min at 20°C. Supernatants were diluted with HPLC water (purified in house) to make a solution of 75% water, 25% supernatant. Lipids were partially purified on C18 solid phase extraction columns (Agilent, Palo Alto, CA, United States). A series of four elutions with 1.5 mL of 60%, 75%, 85%, and 100% methanol were collected ([Stuart et al., 2013]; [Leishman et al., 2016a],[b], [2018]).
As previously described ([Bradshaw et al., 2006]; [Tan et al., 2006]; [Smoum et al., 2010]; [Stuart et al., 2013]; [Tortoriello et al., 2013]; [Raboune et al., 2014]; [Leishman et al., 2016a],[b], [2017], [2018]), samples were analyzed using an Applied Biosystems API 3000 triple quadrupole mass spectrometer with electrospray ionization (Foster City, CA, United States). Using an Agilent XDB-C18 reversed phase analytical column and optimized mobile phase gradients, 20 μL from each elution were chromatographed. Two Shimadzu 10ADvp pumps (Columbia, MD, United States) provided the pressure for gradient elution. Mobile phase A: 20% methanol, 80% water (v/v) and 1 mM ammonium acetate (Sigma, St. Louis, MO, United States). Mobile phase B: 100% methanol, 1 mM ammonium acetate. Every method run began with 0% mobile phase B, reached 100% mobile phase B flowing at 0.2 mL/min, and gradually returned to 0% mobile phase B.
This screening library will be referred to as the lipidome when discussing data from this study. HPLC/MS/MS data were analyzed using Analyst software (Applied Biosystems) ([Bradshaw et al., 2006]; [Tan et al., 2006]; [Stuart et al., 2013]; [Tortoriello et al., 2013]; [Raboune et al., 2014]; [Leishman et al., 2016a],[b], [2017], [2018]). Chromatograms (Supplementary Figure 3) were generated by determining the retention time of analytes from the analytical column with a [M-1] or [M+1] parent peak and a fragmentation peak corresponding to the programmed values. […]

[1] = cerebellum, PND 35, 3 mg/kg CP 55,940
[2] = cerebellum, PND35 WT female mice, 3mg/kg CP 55,940
[3] = cortex, PND 50, 3 mg/kg CP 55,940

`CCCCCCC(C)(C)c1ccc([C@@H]2C[C@H](O)CC[C@H]2CCCO)c(O)c1` [CP 55,940] was tested, and the “N-oleoyl phenylalanine: Magnitude (x Veh level)” value [1] was 1.14 x Veh level, the “N-palmitoyl leucine: Direction (relative to Veh)” value [1] was “↑” and the “N-palmitoyl leucine: Magnitude (x Veh level)” value [1] was 1.52 x Veh level. For the same molecule, the “N-palmitoyl phenylalanine: Direction (relative to Veh)” value [1] was “↑”, the “N-palmitoyl phenylalanine: Magnitude (x Veh level)” value [1] was 1.43 x Veh level and the “N-palmitoyl proline: Direction (relative to Veh)” value [1] was “↓”. For the same molecule, the “N-palmitoyl proline: Magnitude (x Veh level)” value [1] was 0.87 x Veh level, the “N-palmitoyl serine: Direction (relative to Veh)” value [1] was “↓” and the “N-palmitoyl serine: Magnitude (x Veh level)” value [1] was 0.81 x Veh level. For the same molecule, the “N-palmitoyl tyrosine: Direction (relative to Veh)” value [1] was “↑”, the “N-palmitoyl tyrosine: Magnitude (x Veh level)” value [1] was 1.19 x Veh level and the “N-palmitoyl valine: Direction (relative to Veh)” value [1] was “↑”. For the same molecule, the “N-palmitoyl valine: Magnitude (x Veh level)” value [1] was 1.70 x Veh level, the “2-arachidonoyl glycerol level, Mean” value [2] was 2.68E-10 and the “2-linoleoyl glycerol level, Mean” value [2] was 1.01E-10. The “2-oleoyl glycerol level, Mean” value [2] was 7.55E-10, the “2-palmitoyl glycerol level, Mean” value [2] was 3.01E-10 and the “6-ketoPGF1α level, Mean” value [2] was 8.74E-12. For the same molecule, the “11-OH-THC level, Mean” value [2] was “BDL”, the “11-nor-9-carboxyTHC level, Mean” value [2] was “BDL” and the “Arachidonic acid level, Mean” value [2] was 1.26E-09. For the same molecule, the “Cannabidiol level, Mean” value [2] was “BDL”, the “Linoleic acid level, Mean” value [2] was 4.27E-10 and the “N- stearoyl valine level, Mean” value [2] was “PISSR”. The “N-arachidonoyl GABA level, Mean” value [2] was 9.02E-12, the “N-arachidonoyl alanine level, Mean” value [2] was 5.29E-12 and the “N-arachidonoyl dopamine level, Mean” value [2] was “BDL”. For the same molecule, the “N-arachidonoyl ethanolamine level, Mean” value [2] was 1.17E-11, the “N-arachidonoyl glycine level, Mean” value [2] was 2.55E-11 and the “N-arachidonoyl methionine level, Mean” value [2] was 8.56E-13. The “N-arachidonoyl phenylalanine level, Mean” value [2] was 1.22E-12, the “N-arachidonoyl proline level, Mean” value [2] was “BDL” and the “N-arachidonoyl serine level, Mean” value [2] was 5.34E-12. For the same molecule, the “N-arachidonoyl taurine level, Mean” value [2] was 7.17E-11, the “N-arachidonoyl tryptophan level, Mean” value [2] was “PISSR” and the “N-arachidonoyl tyrosine level, Mean” value [2] was 8.32E-13. For the same molecule, the “N-docosahexaenoyl GABA level, Mean” value [2] was 2.27E-12, the “N-docosahexaenoyl alanine level, Mean” value [2] was 3.11E-12 and the “N-docosahexaenoyl ethanolamine level, Mean” value [2] was 2.05E-11. The “N-docosahexaenoyl glycine level, Mean” value [2] was 1.34E-11, the “N-docosahexaenoyl leucine level, Mean” value [2] was 7.43E-13 and the “N-docosahexaenoyl methionine level, Mean” value [2] was 5.43E-13. The “N-docosahexaenoyl phenylalanine level, Mean” value [2] was 1.05E-12, the “N-docosahexaenoyl proline level, Mean” value [2] was “BDL” and the “N-docosahexaenoyl serine level, Mean” value [2] was 2.79E-11. For the same molecule, the “N-docosahexaenoyl tryptophan level, Mean” value [2] was “PISSR”, the “N-docosahexaenoyl tyrosine level, Mean” value [2] was 1.57E-12 and the “N-docosahexaenoyl valine level, Mean” value [2] was “BDL”. For the same molecule, the “N-linoleoyl GABA level, Mean” value [2] was 7.16E-13, the “N-linoleoyl alanine level, Mean” value [2] was 1.26E-12 and the “N-linoleoyl ethanolamine level, Mean” value [2] was 2.95E-11. For the same molecule, the “N-linoleoyl glycine level, Mean” value [2] was 3.27E-12, the “N-linoleoyl leucine level, Mean” value [2] was 3.65E-13 and the “N-linoleoyl methionine level, Mean” value [2] was “PISSR”. The “N-linoleoyl phenylalanine level, Mean” value [2] was 2.56E-13, the “N-linoleoyl proline level, Mean” value [2] was “BDL” and the “N-linoleoyl serine level, Mean” value [2] was 4.55E-11. The “N-linoleoyl tryptophan level, Mean” value [2] was “PISSR”, the “N-linoleoyl tyrosine level, Mean” value [2] was “PISSR” and the “N-linoleoyl valine level, Mean” value [2] was “BDL”. For the same molecule, the “N-nervonoyl valine level, Mean” value [2] was “BDL”, the “N-oleoyl GABA level, Mean” value [2] was 3.82E-12 and the “N-oleoyl alanine level, Mean” value [2] was 6.55E-12. The “N-oleoyl dopamine level, Mean” value [2] was “BDL”, the “N-oleoyl ethanolamine level, Mean” value [2] was 7.98E-11 and the “N-oleoyl glycine level, Mean” value [2] was 1.52E-11. For the same molecule, the “N-oleoyl leucine level, Mean” value [2] was 1.49E-12, the “N-oleoyl methionine level, Mean” value [2] was 1.2E-12 and the “N-oleoyl phenylalanine level, Mean” value [2] was 1.43E-12. The “N-oleoyl proline level, Mean” value [2] was 3.42E-13, the “N-oleoyl serine level, Mean” value [2] was 2.53E-10 and the “N-oleoyl tryptophan level, Mean” value [2] was 1.48E-13. The “N-oleoyl tyrosine level, Mean” value [2] was 7.24E-13, the “N-oleoyl valine level, Mean” value [2] was “PISSR” and the “N-palmitoyl GABA level, Mean” value [2] was 7.17E-12. For the same molecule, the “N-palmitoyl alanine level, Mean” value [2] was 7.87E-12, the “N-palmitoyl ethanolamine level, Mean” value [2] was 3.88E-11 and the “N-palmitoyl glycine level, Mean” value [2] was 2.65E-11. The “N-palmitoyl leucine level, Mean” value [2] was 2.75E-12, the “N-palmitoyl methionine level, Mean” value [2] was 1.86E-12 and the “N-palmitoyl phenylalanine level, Mean” value [2] was 2.82E-12. For the same molecule, the “N-palmitoyl proline level, Mean” value [2] was 7E-13, the “N-palmitoyl serine level, Mean” value [2] was 5.23E-11 and the “N-palmitoyl tryptophan level, Mean” value [2] was 3.12E-13. The “N-palmitoyl tyrosine level, Mean” value [2] was 1.58E-12, the “N-palmitoyl valine level, Mean” value [2] was 1.73E-13 and the “N-stearoyl GABA level, Mean” value [2] was 5.88E-12. The “N-stearoyl alanine level, Mean” value [2] was 1.31E-11, the “N-stearoyl ethanolamine level, Mean” value [2] was 1.11E-11 and the “N-stearoyl glycine level, Mean” value [2] was 1.37E-11. The “N-stearoyl leucine level, Mean” value [2] was 9.56E-13, the “N-stearoyl methionine level, Mean” value [2] was 1.59E-12 and the “N-stearoyl phenylalanine level, Mean” value [2] was 1.92E-12. For the same molecule, the “N-stearoyl proline level, Mean” value [2] was 3.97E-13, the “N-stearoyl serine level, Mean” value [2] was 2.93E-11 and the “N-stearoyl tryptophan level, Mean” value [2] was 6.79E-13. The “N-stearoyl tyrosine level, Mean” value [2] was 8.44E-14, the “Oleic acid level, Mean” value [2] was 1.03E-09 and the “PGE2 level, Mean” value [2] was 4.01E-10. The “PhosphoLEA level, Mean” value [2] was 1.04E-11, the “THC level, Mean” value [2] was “BDL” and the “2-linoleoyl glycerol Direction (relative to Veh)” value [3] was “↓”. For the same molecule, the “2-oleoyl glycerol, Direction (relative to Veh)” value [3] was “↓”.

From article PMC6277767, “Broad and Region-Specific Impacts of the Synthetic Cannabinoid CP 55,940 in Adolescent and Adult Female Mouse Brains” (Frontiers in Molecular Neuroscience, 2018)
